This is an account of results in PubChem BioAssay (NCI).

Common to all, as to assay: growth of human tumour cells (NCI), 48 h
For experiment [1], the system named is K-562 leukemia.
Experiment [2] deals with UACC-62 melanoma.
For experiment [3], the system named is UO-31 renal.
Experiment [4] concerns OVCAR-3 ovarian.
Experiment [5] relates to EKVX NSCLC.
Experiment [6] concerns DU-145 prostate.
The subject of experiment [7] is HOP-92 NSCLC.
Experiment [8] deals with SF-268 CNS.
The test system of experiment [9] is NCI-H23 lung.
Experiment [10] has as its system HCT-116 colon.

SMILES strings stand for the structures.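 Protocol summary: plate cells (96-well), add compound at 5 concentrations, incubate 48 h, interpolate endpoints linearly. Abbreviation: GI50, concentration required for 50% inhibition of growth. The concentration for full growth arrest is given as TGI.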

For the compound `OC1CSc2nc3ccccc3n2C1` (stereo unspecified), the TGI in [1], in [2], in experiment [3], in experiment [4], in [5] and in [6] was more than 100 µM throughout. For the same compound, the TGI in experiment [7], in experiment [8], in [9] and in experiment [10] was more than 100 µM in each case.

As to `CCO/C=N/C1=C(C#N)SC2=N/C(=C\c3ccccc3)C(=O)N21`, the TGI in experiment [1] was more than 80.4 µM; in experiment [2], more than 100 µM; in [3], more than 100 µM; in experiment [4] it was more than 100 µM; in [5] it was more than 100 µM; in experiment [6] it was more than 100 µM. Also, the TGI in experiment [7], in [8], in [9] and in [10] was more than 100 µM throughout.

For the compound `COC(=O)C12OC3CO[Si](C(C)C)(C(C)C)O[Si](C(C)C)(C(C)C)OC3C1Oc1nc(=O)ccn12` (stereo unspecified), the TGI in experiment [1] came to 30.6 µM; in [2] it was 27.4 µM; in experiment [3] it was 29.9 µM; in experiment [4] it was 29.3 µM; in experiment [5], 30.7 µM; in [6], 32.5 µM. Also, the TGI in experiment [7] was found to be 27.7 µM; in experiment [8], 24.6 µM; in experiment [9], 29 µM; in experiment [10] it was 29.6 µM.

For `CCOP(=O)(OCC)OC1c2[nH]cc(C(=O)OCc3ccccc3)c2-c2cc(C(=O)OC)[nH]c2C1OC` (stereo unspecified), the TGI is more than 100 µM in [1]; more than 79.6 µM in experiment [2]; more than 59.1 µM in [3]; 54.8 µM in experiment [4]; 70.7 µM in [5]; 89.8 µM in [6]. Further, the TGI in experiment [7] is 26.3 µM; in experiment [8] it was more than 96 µM; in [9], more than 100 µM; in experiment [10], more than 85.4 µM.

For `CCOC(=O)c1c(NC(=S)Nc2ccccc2)sc2c1CCOC2`, the TGI in experiment [1], in experiment [2], in [3], in experiment [4], in experiment [5] and in experiment [6] was more than 100 µM each time. Also, the TGI in [7] was 89.4 µM; in [8], more than 100 µM; in experiment [9], more than 100 µM; in [10] it was more than 100 µM.

Consider `CN(C)c1ccc(C=C2C(=O)NC(=S)NC2=O)c2ccccc12`, for which the TGI in experiment [1], in [2], in experiment [3], in [4], in [5] and in experiment [6] was more than 100 µM throughout. Moreover, the TGI in [7] is 91.4 µM; in experiment [8] it was 76.9 µM; in experiment [9], more than 100 µM; in experiment [10], more than 100 µM.

Consider `COC(=O)/C=C1/OC(c2ccc(OC)cc2)=C(Cl)C1=O`, for which the TGI in experiment [1] worked out at 11.3 µM; in [2] it was 37.9 µM; in experiment [3], 37.7 µM; in experiment [4] it was 26.3 µM; in experiment [5], 39.4 µM; in experiment [6], 36.6 µM. Moreover, the TGI in [7] was determined as 57.5 µM; in experiment [8] it was 36.8 µM; in experiment [9], 34.9 µM; in [10], 26.5 µM.

Consider `O=C1CC(NCc2ccccc2)c2c(Cl)sc(Cl)c21` (stereo unspecified), for which the TGI in experiment [1] was more than 100 µM; in [2], 24.3 µM; in [3] it was 75.7 µM; in experiment [4], 47.3 µM; in experiment [5], more than 100 µM; in experiment [6] it was more than 66.5 µM. Also, the TGI was 64.8 µM in experiment [7], 50.2 µM in experiment [8], 39.5 µM in experiment [9] and 33.1 µM in experiment [10].

As for `COc1ccc(/C=C2\C[C@H]3[C@@H]4CCC5=CC(=O)CC[C@]5(C)[C@H]4CC[C@]3(C)C2=O)cc1OC`, the TGI was more than 100 µM in experiment [1]; more than 100 µM in experiment [2]; 6.85 µM in experiment [3]; more than 100 µM in [4]; 61.2 µM in [5]; more than 100 µM in experiment [6]. Also, the TGI in [7], in experiment [8], in experiment [9] and in experiment [10] was more than 100 µM in each case.

As to `Cc1nc2sccn2c1/C=C1/C(=O)Nc2cccc(Cl)c21`, the TGI in experiment [1], in experiment [2], in experiment [3], in experiment [4], in experiment [5] and in [6] was more than 100 µM in each case. For the same compound, the TGI in experiment [7], in experiment [8], in experiment [9] and in [10] was more than 100 µM each time.

Regarding `Cn1c(N)nc(-c2ccc(Cl)cc2)c1SSc1c(-c2ccc(Cl)cc2)nc(N)n1C`, the TGI is 6.2 µM in [1]; 5.03 µM in experiment [2]; 3.24 µM in experiment [3]; 3.54 µM in experiment [4]; 6.47 µM in experiment [5]; 25.4 µM in experiment [6]. Moreover, the TGI in experiment [7] is 3.7 µM; in experiment [8] it was 7.1 µM; in [9], 3.37 µM; in experiment [10], 13.4 µM.

Consider `CCOc1cc2c(c(OCC)c1O)CC[C@@H]1[C@@H]2CC[C@]2(C)[C@@H](O)CC[C@@H]12`, for which the TGI is 23.7 µM in experiment [1]; 27.5 µM in experiment [2]; 79.3 µM in experiment [3]; 3.08 µM in [4]; more than 100 µM in experiment [5]; 37.4 µM in experiment [6]. Further, the TGI in [7] was 67.6 µM; in experiment [8], 52.1 µM; in [9], 41.4 µM; in [10], 18.1 µM. Also, the GI50 in experiment [4] is 0.0896 µM; in [6], 3.32 µM; in [10], 0.801 µM.

For the compound `COC(=O)CCC(NC(=O)OC(C)(C)C)C(=O)NC(Cc1ccc(NC(=O)CCCC(C)=O)cc1)C(=O)NC(CCC(=O)OC)C(=O)OC` (stereo unspecified), the TGI in experiment [1], in [2], in [3], in [4], in [5] and in experiment [6] was more than 100 µM throughout. In addition, the TGI in [7], in experiment [8], in experiment [9] and in experiment [10] was more than 100 µM throughout.

Regarding `COc1ccc(-c2oc3c(OC)c(OC)cc(O)c3c(=O)c2OC)cc1`, the TGI in experiment [1], in [2], in experiment [3], in [4], in experiment [5] and in [6] was more than 100 µM each time. Besides, the TGI in [7], in experiment [8], in experiment [9] and in experiment [10] was more than 100 µM in each case.

With `CNc1nc(C(N)=O)c(N)s1`, the TGI in [1], in experiment [2], in [3], in experiment [4], in experiment [5] and in experiment [6] was more than 100 µM in each case. Further, the TGI in [7], in experiment [8], in experiment [9] and in experiment [10] was more than 100 µM in each case.

For the compound `O=C(c1ccc(Cl)cc1)N(C(=S)OCCOc1ccccc1)c1ccccc1`, the TGI in experiment [1] is more than 100 µM; in experiment [2], 35.1 µM; in [3] it was 3.12 µM; in experiment [4], 30.9 µM; in experiment [5], 48.6 µM; in experiment [6], 31.7 µM. The TGI in experiment [7] came to 30.7 µM; in [8], 60.4 µM; in experiment [9], 36.2 µM; in experiment [10], 30.9 µM.

On to `O=C1C(c2cnc3ccccc3n2)=C(O)c2ccccc21`, for which the TGI in experiment [1], in experiment [2], in experiment [3], in experiment [4], in experiment [5] and in [6] was more than 100 µM each time. For the same compound, the TGI in [7], in experiment [8], in [9] and in experiment [10] was more than 100 µM throughout.

Consider `c1ccc(CSC2(SCc3ccccc3)CCCCC2)cc1`, for which the TGI in [1], in experiment [2], in [3], in experiment [4], in experiment [5] and in experiment [6] was more than 10 µM each time. In addition, the TGI in [7], in [8], in experiment [9] and in experiment [10] was more than 10 µM each time.

As for `O=C(N/N=C/c1ccccc1)c1cccc2nc3ccccc3nc12`, the TGI in experiment [1], in experiment [2], in [3], in experiment [4], in experiment [5] and in [6] was more than 100 µM throughout. Also, the TGI was more than 100 µM in experiment [7], more than 100 µM in [8], more than 69.2 µM in experiment [9] and more than 100 µM in [10].

With `c1ccc2c(c1)OC(N1CCCC1)c1cnc(N3CCOCC3)nc1-2` (stereo unspecified), the TGI in experiment [1] was more than 100 µM; in experiment [2], more than 100 µM; in experiment [3], 47.2 µM; in experiment [4] it was more than 100 µM; in experiment [5], 79.4 µM; in [6], more than 100 µM. Moreover, the TGI is 55.6 µM in experiment [7], more than 100 µM in [8], 30.9 µM in experiment [9] and more than 100 µM in experiment [10].

As to `CC(=O)OC(C)(C)CCC(=O)[C@](C)(O)[C@H]1[C@H](O)C[C@@]2(C)[C@@H]3CCc4c(cc(OC5OC(CO)C(O)C(O)C5O)c(O)c4C)C3(C)C(=O)C[C@]12C` (stereo partly specified), the TGI in experiment [1], in experiment [2], in [3], in experiment [4], in experiment [5] and in experiment [6] was more than 100 µM each time. In addition, the TGI in [7], in experiment [8], in experiment [9] and in experiment [10] was more than 100 µM in each case.

For the compound `CC(C)Oc1c(-c2ccc(F)cc2)c(O)c2c3c1oc(=O)n3C=CC2C` (stereo unspecified), the TGI was found to be 39.6 µM in [1]; 29.4 µM in experiment [2]; 25.5 µM in [3]; 27.9 µM in experiment [4]; 30.6 µM in [5]; 51.6 µM in [6]. The TGI in experiment [7] was found to be 28 µM; in [8], 35.2 µM; in [9], 24.6 µM; in experiment [10], 25.5 µM.

Consider `C=C1C[C@H](O)[C@H](Br)C(C)(C)C12CCC(C)(Cl)C(Br)C2` (stereo partly specified), for which the TGI came out at 56.2 µM in experiment [1]; 15.6 µM in experiment [2]; 17 µM in [3]; 15.7 µM in [4]; 1.61 µM in experiment [5]; 15.8 µM in experiment [6]. Also, the TGI in experiment [7] came to 8.76 µM; in experiment [8] it was 20.8 µM; in experiment [9] it was 7.98 µM; in [10], 16.1 µM.

Take `CCOC1CC(C)N(C(=O)c2ccccc2)O1` (stereo unspecified): the TGI in experiment [1], in [2], in experiment [3], in experiment [4], in experiment [5] and in experiment [6] was more than 100 µM throughout. Further, the TGI in [7], in experiment [8], in [9] and in [10] was more than 100 µM throughout.

Turning to `CSc1nc2c(c(=O)[nH]1)N=C(c1ccccc1)CC(c1ccccc1)N2` (stereo unspecified), the TGI in experiment [1] is 68.4 µM; in experiment [2], 57.1 µM; in experiment [3], more than 100 µM; in experiment [4], more than 100 µM; in experiment [5] it was more than 100 µM; in experiment [6], more than 100 µM. Further, the values for the TGI in experiment [7], in experiment [9] and in experiment [10] were more than 100 µM, 98.2 µM and 97.5 µM, respectively.

For `CC(=O)N(C(C)=O)c1cc2c3c(c1)CCCN3CCC2`, the TGI in experiment [1], in [2], in experiment [4], in experiment [5], in [6] and in experiment [7] was more than 10 µM throughout. Also, the TGI in experiment [8], in experiment [9] and in [10] was more than 10 µM each time.
